What was measured:
[1] = system: rats subjected to volume-controlled hemorrhagic shock; assay: Survival of rats subjected to volume-controlled hemorrhagic shock; assay type: in vivo, rat
Description: Surgical procedures to obtain vascular access. All study protocols using rats followed the guidelines for the use of experimental animals of the US National Institutes of Health and were approved by the Institutional Animal Care and Use Committee at the University of Pittsburgh.
Male specific pathogen-free Sprague Dawley rats (CHARLES RIVER LABORATORIES, Wilmington, Mass.), weighing 150-250 g, were housed in a temperature-controlled environment with a 12-h light/dark cycle. The rats had free access to food and water. For experiments, rats were anesthetized with intramuscular ketamine HCl (30 mg/kg) and intraperitoneal sodium pentobarbital (35 mg/kg). Animals were kept in a supine position during the experiments. Lidocaine (0.5 ml of a 0.5% solution) was injected subcutaneously to provide local anesthesia at surgical cut-down sites. In order to secure the airway, a tracheotomy was performed and polyethylene tubing (PE 240; BECTON-DICKINSON, Sparks, Md.) was introduced into the trachea. Animals were allowed to breathe spontaneously.
The right femoral artery was cannulated with polyethylene tubing (PE 10). This catheter was attached to a pressure transducer that allowed instantaneous measurement of mean arterial pressure (MAP) during the experiment. For experiments using the pressure-controlled hemorrhagic shock (HS) model, the right jugular vein was exposed, ligated distally, and cannulated with polyethylene tubing (PE 10) in order to withdraw blood. For experiments using the volume-controlled hemorrhagic shock (HS) model, the jugular catheter was used to infuse the resuscitation solution and the right femoral vein, which was cannulated with a silicon catheter (CHRONIC-CATH, NORFOLK MEDICAL, Skokie, Ill.), was used to withdraw blood.
All animals were instrumented within 30 min. Heparin (500 U/kg) was administered immediately after instrumentation through the femoral vein. Animals were placed in a thermal blanket to maintain their body temperature at 37° C. The positioning of the different devices aforementioned was checked postmortem.
Survival of rats subjected to volume-controlled hemorrhagic shock. Following surgical preparation and a 5-min stabilization period to obtain baseline readings, rats were subjected to hemorrhagic shock. Bleeding was carried out in 2 phases.
Initially, 21 ml/kg of blood was withdrawn over 20 min. Immediately thereafter, an additional 12.5 ml/kg of blood was withdrawn over 40 min. […]
Blood pressure was recorded continuously using a commercial strain-gauge transducer, amplifier, and monitor (S90603a, SPACELABS, Redmond, Wash.). […] Hemoglobin concentration [Hb], lactate and glucose concentration were determined using an auto-analyzer (Model ABL 725, […], Westlake, Ohio). […]

[2] = system: mouse embryonic cells (MEC); assay type: cell-based
Protocol: Electron paramagnetic resonance (“EPR”) spectroscopy was used to monitor the cellular delivery of compounds 5a and 5b shown in FIG. 2 in mouse embryonic cells (“MEC”).
The following conditions were used during the EPR-based analysis of the integration and reduction of nitroxide Gramicidin S-peptidyl conjugates in MECs. The MECs at a concentration of 10 million MECs per mL were incubated with 10 μM of 4-AT and compound 5a, respectively. Recovered nitroxide radicals in whole cells, mitochondria, and cytosol fractions were resuspended in phosphate buffer saline (“PBS”) in the presence and absence, respectively, of 2 μM K3Fe(CN)6.

SMILES: CC(C)C[C@@H](/C=C/[C@H](Cc1ccccc1)C(=O)N1CCC[C@H]1C(=O)N[C@H](C(=O)N[C@@H](CCCNC(=O)OCc1ccccc1)C(=O)NC1CC(C)(C)N([O])C(C)(C)C1)C(C)C)NC(=O)OC(C)(C)C [XJB-5-131]
- rats surviving longer than 3 hours after completion of the hemorrhage protocol ([1]; 2 μmol/kg i.v.): Three of the six
- survival versus vehicle-treated rats ([1]; 2 μmol/kg i.v. infusion during last 20 min of hemorrhage, no resuscitation): survived significantly longer
- rats surviving the whole 6 hour post-bleeding observation period ([1]; 2 μmol/kg i.v., six rats): one
- beneficial dose, times smaller than the TEMPOL dose of previous studies ([1]; ~0.1 mg/kg versus TEMPOL 30 mg/kg bolus+30 mg/kg per h): about 300 fold
- EPR triplet signals of nitroxide radicals in MECs and in mitochondria isolated from these cells ([2]; 10 μM, no EPR signal in the cytosolic fraction): Distinctive characteristic triplet signals of nitroxide radicals were detected
- integration and one-electron reduction in MECs (EPR signal increase upon ferricyanide) ([2]; 10 μM, with and without K3Fe(CN)6): resulted in integration and one-electron reduction
- concentration in the mitochondria of cultured mouse embryonic cells ([2]; after incubation with solutions of the compounds): concentrated in the mitochondria
